Source: doi:10.1101/2025.03.14.643404, “A Bivalent Molecular Glue Linking Lysine Acetyltransferases to Oncogene-induced Cell Death” (bioRxiv, 2025)
Entries after “also recorded” stand apart in the source; their conditions may differ.

Tests used:
DAUDI = assay: Cell viability, 7 days compound treatment (Cell Titer-Glo), DAUDI; type: cell-based; conditions: Homo sapiens, 168 h, read-out: IC50 of antiproliferation
Method: Fifteen thousand cells were seeded in 100 μl of media per well of a U-bottom 96-well plate and treated with digitally dispensed drugs (Tecan D300e) for the indicated times and doses. After 96 hours, plates were centrifuged for 750 rpm for 3 minutes, and old media was exchanged for 100 μl of fresh media. Drug treatment was then repeated at the indicated doses. 72 hours following media change, cells were transferred to 96 well flat-bottom opaque plates. Viability was measured by adding 25 μL Cell Titer-Glo reagent (Promega G7570) to each well and luminescence was measured (BMG Labtech Pherastar FS). The background luminescence was subtracted, and the signal was normalized to DMSO-treated cells. IC50 measurements on cell lines were calculated using at least three biological replicates by separate cell passages. Fit of dose–response curves to data and statistical analysis was performed using GraphPad PRISM using the four-parameter log(inhibitor) vs response function.

c-MYC mRNA = assay: RT-qPCR of c-MYC transcripts in SUDHL5; type: cell-based, human; conditions: SUDHL5, 1 nM
Method: Cells were plated at 1M/mL and harvested in TRIsure (Bioline 38033). RNA was extracted using Direct-zol RNA MicroPrep columns (Zymo R2062) treated with DNAseI. cDNA was prepared (Meridian Bioscience BIO-65054) and used for qPCR (Meridian Bioscience BIO-94050) using an AppliedBiosystems QuantStudio 6Pro. Primer sequences were the following:
• c-MYC fwd: […]; • c-MYC rev: […]; • GAPDH fwd: […]; • GAPDH rev: […].

SUDHL5 cells = assay: TUNEL and total DNA content co-staining of SUDHL5; type: cell-based, human; conditions: SUDHL5, 10 nM
Method: 1 million SUDHL5 cells were plated in 6 mL of media in 6-well plates and treated with compound for indicated timepoints and doses. 1.2 million total cells were counted, washed in PBS, fixed in 4% paraformaldehyde/PBS at a concentration of 10M/mL for 15 minutes at room temperature in the dark, washed in PBS, and stored in 70% ethanol at −20°C until ready for processing (at least 24 hours). DNA breaks in fixed cells were labeled with bromolated deoxyuridine (Br-dUTP or BrdU) by incubation with deoxynucleotidyl transferase (TdT) for 60 min at 37°C, washed, and stained with FITC-labeled anti-BrdU antibodies for 30 min at room temperature in the dark (BD 556405). Cells were resuspended in 1% BSA/PBS with 1:100 RNaseA (Invitrogen 12091021) and co-stained with 7-AAD for 30 min at room temperature in the dark (BD 559925). The suspension was gently agitated by shaking and analyzed by flow cytometry within 1 hour (BD Accuri).

c-MYC protein = assay: Western blot of c-MYC protein in SUDHL5; type: cell-based, human
Method: (§1) Cells were plated at 1M/mL and treated with drug at indicated timepoints and doses. Cells were harvested on ice in RIPA buffer (50mM Tris-HCl pH 8, 150mM NaCl, 1% NP-40, 0.1% DOC, 1% SDS, protease inhibitor cocktail (~20 mg/ml pepstatin, aprotinin, and leupeptin), 1mM DTT) and 1:200 benzonase (Sigma E1014) was added and incubated for 20 mins. After 10 min centrifugation at 14,000g and 4 °C, the supernatant was collected and protein concentration was measured by Bradford. SDS-PAGE analysis was carried out in either 4–12% or 12% Bis-Tris PAGE gels (Thermo NW04120 and NW04127). Antibodies used for immunoblots were: BCL6 (1:1000 v:v, Cell Signaling D65C10), p300 (1:250, Santa Cruz F-4 sc-48343), CBP (1:1000, Cell Signaling D6C5), c-MYC (1:1000, Cell Signaling D84C12), Caspase-3 (1:1000, Cell Signaling 9662), GAPDH (1:2000, Santa Cruz 6C5 sc-32233), BBC3/PUMA (1:1000, Cell Signaling E2P7G), FOXO3 (1:1000, Cell Signaling 75D8), H3K27ac (1:1000, abcam ab4729), H2BK20ac (1:1000, Cell Signaling D709W), H3 (1:10,000, Cell Signaling 1B1B2), H2B (1:10,000, Cell Signaling D2H6), p27/CDKN1B (1:1000, Cell Signaling D69C12), and TP53 (1:1000, Santa Cruz DO-1). ImageStudio (Licor) was used for blot imaging and quantification.

[1] = test system: primary human fibroblasts; assay: Viability of primary human fibroblasts, 72 h; type: cell-based; conditions: compared with SUDHL5
Method: Lymphoma and leukemia cells were grown in RPMI-1640 medium (ATCC 30–2001) supplemented with 10% fetal bovine serum (FBS) and 1% 100X Penicillin-Streptomycin (Gibco, 15140122) in incubators at 37°C with 5% carbon dioxide. KARPAS422 cells were obtained from Sigma (06101702) and DB and SUDHL5 were obtained from the American Tissue Culture Collection (ATCC). The Daudi cell line, originally from ATCC, was generously provided by R. Levy’s laboratory at Stanford University. Raji cells, also from ATCC, were a gift from J. Cochran’s laboratory at Stanford University. TOLEDO and K562 cells were originally obtained from ATCC and were kindly shared by A. Alizadeh’s laboratory at Stanford University. […]
Thirty thousand cells were seeded in 100 μl of media per well of a 96-well plate and treated with drug for the indicated times and doses. A resazurin-based indicator of cell health (PrestoBlue; P50200, Thermo Fisher) was added for 1.5 h at 37°C, at which point the fluorescence ratio at 560/590 nm was recorded (Tecan Spark). The background fluorescence was subtracted, and the signal was normalized to DMSO-treated cells. IC50 measurements on cell lines were calculated using at least three biological replicates (separate cell passages). […]

BBC3/PUMA = assay: Western blot of BBC3/PUMA in SUDHL5; type: cell-based, human; conditions: SUDHL5, 48 hours
Method: as §1

- IC50 (DAUDI): 6.9 nM
- IC50 (c-MYC protein; SUDHL5, 4 hours, read-out: IC50 of c-MYC protein repression): ~0.8 nM
Structure (SMILES): CNC(=O)COc1cc2cc(Nc3nc(N4CCC(C(=O)N5CCN(CCC(=O)N6CCC(n7nc(N8CCCc9cc(-c%10cnn(C)c%10)c(C(F)F)cc98)c8c7CCN(C(=O)NC)C8)CC6)CC5)CC4)ncc3Cl)cc(OC)c2n(C)c1=O [TCIP3]
- t1/2 of c-MYC mRNA decrease (c-MYC mRNA): 33 min
- predominant cellular effect after 24 hours (SUDHL5 cells): arrest cells in G1
- t1/2 of c-MYC protein decrease (c-MYC protein; SUDHL5, 1 nM): 2.5 h
- cytotoxicity [1]: substantially reduced cytotoxicity; also recorded: without exhibiting toxicity
- PUMA expression increase (BBC3/PUMA): more than 6 fold
